Source: ChEMBL document CHEMBL5252668, “Targeting the "Undruggable" Driver Protein, KRASG12D, as Potential Therapy in Prostate Cancer” (ACS Med Chem Lett, 2023)

What was measured:
GTPase KRas [1] = biological target: T1, GTPase KRas (Homo sapiens, UniProt P01116, G12D)
GTPase KRas [2] = biological target: T1, GTPase KRas; remark: listed apart in the source

T1 sequence (P01116 whole entry G12D): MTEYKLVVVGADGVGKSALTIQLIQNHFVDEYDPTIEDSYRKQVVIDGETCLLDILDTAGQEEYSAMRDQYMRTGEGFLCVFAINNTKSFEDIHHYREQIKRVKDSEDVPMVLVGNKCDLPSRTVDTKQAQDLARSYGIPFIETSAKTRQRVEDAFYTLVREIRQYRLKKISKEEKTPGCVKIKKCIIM

Row | SMILES | IC50 (GTPase KRas [1]) [nM] | IC50 (GTPase KRas [2]) [nM]
1 | Oc1cc(-c2ncc3c(N4CCC[C@]5(CCO5)C4)nc(OC[C@@]45CCCN4C[C@H](F)C5)nc3c2F)c2c(Cl)c(F)ccc2c1 | 3 | 1
2 | Oc1cc(-c2ncc3c(N4CCCC5(CCO5)C4)nc(OC[C@@]45CCCN4C[C@H](F)C5)nc3c2F)c2c(F)c(F)ccc2c1 (stereo not given in full) | 9 | 2
3 | C#Cc1c(F)ccc2cc(O)cc(-c3ncc4c(N5CCCC6(CCO6)C5)nc(OC[C@@]56CCCN5C[C@H](F)C6)nc4c3F)c12 (stereo not given in full) | 43 | 1
4 | CCc1c(F)ccc2cc(O)cc(-c3ncc4c(N5CCCC6(CCO6)C5)nc(OC[C@@]56CCCN5C[C@H](F)C6)nc4c3C)c12 (stereo not given in full) | 7 | 4
5 | CCc1c(F)ccc2cc(O)cc(-c3ncc4c(N5CCCC6(CC(=O)N6)C5)nc(OC[C@@]56CCCN5C[C@H](F)C6)nc4c3F)c12 (stereo not given in full) | 44 | 2
6 | CCc1cccc2cc(O)cc(-c3ncc4c(N5CCCC6(CCO6)C5)nc(OC[C@@]56CCCN5C[C@H](F)C6)nc4c3F)c12 (stereo not given in full) | 11 | 3
7 | Oc1cc(-c2ncc3c(N4CCCC5(CC(O)C5)C4)nc(OC[C@@]45CCCN4C[C@H](F)C5)nc3c2F)c2c(F)c(F)ccc2c1 (stereo not given in full) | 119 | 2
8 | CCc1cccc2cc(O)cc(-c3ncc4c(N5CCCC6(CC(O)C6)C5)nc(OC[C@@]56CCCN5C[C@H](F)C6)nc4c3F)c12 (stereo not given in full) | 22 | 1
9 | CCc1c(F)ccc2cc(O)cc(-c3ncc4c(N5CC(O)CC6(CC6)C5)nc(OC[C@@]56CCCN5C[C@H](F)C6)nc4c3F)c12 (stereo not given in full) | 34 | 2
10 | Oc1cc(Cl)c(C2CC2)c(-c2ncc3c(N4CCCC5(CCO5)C4)nc(OC[C@@]45CCCN4C[C@H](F)C5)nc3c2F)c1 (stereo not given in full) | 66 | 2
